Assay results as given in patent US11180510B2, “Xanthine derivatives and uses thereof as inhibitors of bromodomains of BET proteins” (Centre national de la recherche scientifique, priority 2017, dated 2021).

Biological target: T1, Brd2(BD1) (Homo sapiens, UniProt P25440)
T1 construct: GST tagged bromodomain proteins were purchased from BPS Bioscience; purchased BPS Bioscience
Assay: HTRF BET selectivity profile, Brd2(BD1)
Type: binding

T1 sequence (P25440 74-180 limits assumed): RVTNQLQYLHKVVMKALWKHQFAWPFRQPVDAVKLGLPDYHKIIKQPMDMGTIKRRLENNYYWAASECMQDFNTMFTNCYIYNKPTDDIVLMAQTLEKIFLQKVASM

- IC50 (read-out: Brd2(BD1) IC50): 183 nM
- Ratio 2-1 vs 2-2 (selectivity Brd2(BD1) vs Brd2(BD2), HTRF IC50): 7
Compound: CCn1cnc2c1c(=O)[nH]c(=O)n2Cc1ccc(CNS(=O)(=O)c2ccc(OC3CCOCC3)c(F)c2)cc1 [Compound 43c]
